Reference: patent US5591741A, “Fungicidal spiroheterocyclic derivatives” (American Cyanamid Company, priority 1993, dated 1997)

Tests used:
Alternaria solani = test: Activity against tomato early blight (AS); assay type: in vivo; details: Table VI; tomato seedlings, contact prophylactic foliar spray, 4 days
Procedure, shortened: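 Foliar contact prophylactic spray on tomato seedlings (cv Outdoor Girl, second true leaf expanded) in acetone/water 50:50 with 0.04% Tween 20; 24 h at 20° C, 40% R.H., then inoculation with 10^4 spores/ml A. solani conidia. Kept moist at 21° C; lesion cover rated 4 days post-inoculation against untreated or diluent-sprayed controls.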

[1] = system: Erysiphe graminis f.sp. hordei; test: Activity against barley powdery mildew, direct therapeutic (EGT); assay type: in vivo; details: direct therapeutic foliar spray, 600 ppm, up to 7 days
Procedure, shortened: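 Barley seedlings (cv. Golden Promise, single-leaf stage) were dusted with mildew conidia one day before a therapeutic foliar spray of 600 ppm compound. Plants were kept at 18 °C and 40% humidity for up to 7 days, and sporulating leaf area was rated against untreated or diluent-sprayed controls.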

Botrytis cinerea = test: Direct protectant activity against broad bean grey mould (BCB); assay type: in vivo; details: direct protectant foliar spray, 600 ppm, 4 days
Procedure, shortened: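 Broad bean plants (cv The Sutton, two leaf pairs) sprayed on upper leaf surfaces at 600 ppm, then inoculated 24 h later with 10^6 conidia/ml. Kept 4 days at 22 °C, high humidity; disease control rated from % leaf area with lesions against untreated or diluent controls.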

Pyricularia oryzae = assay type: in vivo; details: rice seedlings, direct therapeutic foliar spray, 600 ppm, 4-5 days
[2] = system: Erysiphe graminis f.sp. hordei; test: Direct protectant activity against barley powdery mildew (EGP); assay type: in vivo; details: direct protectant foliar spray, 8 days
Procedure, shortened: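 Barley seedlings (cv Golden Promise, single-leaf stage) were foliar-sprayed, held 24 h at 18 °C/40% RH, then dusted with mildew conidia. After 8 days at 18 °C/40% RH, sporulating leaf area was scored as a rating against untreated or diluent-sprayed controls.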

Plasmopara viticola = test: Antisporulant activity against vine downy mildew (PVA); assay type: in vivo; details: vine leaves, antisporulant foliar spray, 600 ppm, 750 l/ha
Procedure, shortened: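 Cabernet Sauvignon vines (~8 cm) inoculated on lower leaf surfaces with 5×10^4 zoosporangia/ml, held 24 h at 21° C high humidity then 24 h glasshouse. Infected leaves sprayed underside with 600 ppm compound in 1:1 water/acetone, 0.04% Tween 20, 750 l/ha; 96 h glasshouse, 24 h humidity. Sporulating leaf area rated versus control.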

Venturia inaequalis = test: Activity against apple scab in-vitro (VII); assay type: cell-based; details: 10 ppm, 10 days, 20° C., mycelial growth
Procedure, shortened: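 Compound in acetone was tested at 10 ppm final in half-strength Potato Dextrose Broth inoculated with V. inaequalis mycelial fragments and spores at 5×10^4 propagules/ml. After 10 days at 20° C, mycelial growth was rated against untreated or diluent controls.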

Phytophthora infestans = assay type: in vivo; details: tomato, direct protectant foliar spray
[3] = system: Pseudocercosporella herpotrichoides; test: Activity against wheat eyespot in-vitro (PHI); assay type: cell-based; details: 10 ppm, 10 days, 20° C., mycelial growth
Procedure, shortened: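 P. herpotrichoides mycelial fragments (5×10^4/ml) grown in half-strength PDB with compound at 10 ppm final, added from acetone. Incubated 10 days at 20 °C; mycelial growth rated against untreated or diluent controls.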

Leptosphaeria nodorum = test: Activity against wheat leafspot (LN); assay type: in vivo; details: direct therapeutic foliar spray, 600 ppm, 6-8 days
Procedure, shortened: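 Wheat cv Norman at single-leaf stage spray-inoculated with 1.5×10^6 conidia/ml, held 24 h at high humidity, then sprayed therapeutically with test compound at 600 ppm. Kept 6-8 days at 22° C, 70% humidity; lesion density per leaf rated against untreated or diluent-sprayed controls.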

Rhizoctonia solani = test: Activity against Rhizoctonia in-vitro (RSI); assay type: cell-based; details: 10 ppm, 10 days, 20° C., mycelial growth
Procedure, shortened: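 R. solani mycelial fragments (5×10^4/ml) in half-strength Potato Dextrose Broth with compound added from acetone to 10 ppm final. Mycelial growth assessed after 10 days at 20° C, rated against untreated or diluent control.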

Compound | disease control rating AS (Alternaria solani) | disease control rating EGT [1] | disease control rating BCB (Botrytis cinerea) | disease control rating PO (Pyricularia oryzae) | disease control rating EGP [2] | disease control rating PVA (Plasmopara viticola) | disease control rating VII (Venturia inaequalis) | disease control rating PIP (Phytophthora infestans) | disease control rating PHI [3] | disease control rating LN (Leptosphaeria nodorum) | disease control rating RSI (Rhizoctonia solani)
CN(C1COC2(CCC(C(C)(C)C)CC2)C1)C1CC2CCC1C2 (stereo not drawn) [Compound 128] | 2 (greater than 80% disease control) | 2 (greater than 80% disease control) | 0 (less than 50% disease control) | 0 (less than 50% disease control) | 2 (greater than 80% disease control) | 0 (less than 50% disease control) | 1 (about 50-80% disease control) | 0 (less than 50% disease control) | 0 (less than 50% disease control) | 0 (less than 50% disease control) | 0 (less than 50% disease control)
CCCCCCCCNC1COC2(C1)C1CC3CC(C1)CC2C3 (stereo not drawn) [Compound 115] | 0 (less than 50% disease control) | 2 (greater than 80% disease control) | 0 (less than 50% disease control) | 0 (less than 50% disease control) | 2 (greater than 80% disease control) | 0 (less than 50% disease control) | 2 (greater than 80% disease control) | 1 (about 50-80% disease control) | 1 (about 50-80% disease control) | 0 (less than 50% disease control) | 0 (less than 50% disease control)
CN(C1CCCCC1)C1COC2(CCC(C(C)(C)C)CC2)C1 (stereo not drawn) [Compound 80] | 0 (less than 50% disease control) | 2 (greater than 80% disease control) | 1 (about 50-80% disease control) | 1 (about 50-80% disease control) | 2 (greater than 80% disease control) | 0 (less than 50% disease control) | 0 (less than 50% disease control) | 2 (greater than 80% disease control) | 0 (less than 50% disease control) | 1 (about 50-80% disease control) | 1 (about 50-80% disease control)
CC(C)CNC1COC2(CCC(C(C)(C)C3CCCCC3)CC2)C1 (stereo not drawn) [Compound 139] | 0 (less than 50% disease control) | 2 (greater than 80% disease control) | 0 (less than 50% disease control) | 0 (less than 50% disease control) | 2 (greater than 80% disease control) | 0 (less than 50% disease control) | 2 (greater than 80% disease control) | 0 (less than 50% disease control) | 2 (greater than 80% disease control) | 1 (about 50-80% disease control) | 0 (less than 50% disease control)
CCCN(CC(C)(C)C)C1COC2(CCC(C(C)(C)C)CC2)C1 (stereo not drawn) [Compound 133] | 0 (less than 50% disease control) | 2 (greater than 80% disease control) | 0 (less than 50% disease control) | 0 (less than 50% disease control) | 2 (greater than 80% disease control) | 0 (less than 50% disease control) | 1 (about 50-80% disease control) | 0 (less than 50% disease control) | 0 (less than 50% disease control) | 0 (less than 50% disease control) | 0 (less than 50% disease control)
CCC(CC)N(CC)C1COC2(CCC(C(C)(C)C)CC2)C1 (stereo not drawn) [Compound 95] | 0 (less than 50% disease control) | 2 (greater than 80% disease control) | 0 (less than 50% disease control) | 0 (less than 50% disease control) | 2 (greater than 80% disease control) | 0 (less than 50% disease control) | 0 (less than 50% disease control) | 0 (less than 50% disease control) | 0 (less than 50% disease control) | 0 (less than 50% disease control) | 1 (about 50-80% disease control)
CCCCCCNC1COC2(CCC(C(C)(C)C)CC2)C1 (stereo not drawn) [Compound 27] | 0 (less than 50% disease control) | 2 (greater than 80% disease control) | 0 (less than 50% disease control) | 0 (less than 50% disease control) | 2 (greater than 80% disease control) | 0 (less than 50% disease control) | 1 (about 50-80% disease control) | 0 (less than 50% disease control) | 1 (about 50-80% disease control) | 0 (less than 50% disease control) | 0 (less than 50% disease control)
CCCCCN(C)C1COC2(CCC(C(C)(C)C)CC2)C1 (stereo not drawn) [Compound 78] | 0 (less than 50% disease control) | 2 (greater than 80% disease control) | 1 (about 50-80% disease control) | 0 (less than 50% disease control) | 2 (greater than 80% disease control) | 0 (less than 50% disease control) | 0 (less than 50% disease control) | 0 (less than 50% disease control) | 0 (less than 50% disease control) | 0 (less than 50% disease control) | 0 (less than 50% disease control)
CC(C)CCCC(C)NC1COC2(CCC(C(C)(C)C)CC2)C1 (stereo not drawn) [Compound 107] | 0 (less than 50% disease control) | 2 (greater than 80% disease control) | 0 (less than 50% disease control) | 0 (less than 50% disease control) | 2 (greater than 80% disease control) | 0 (less than 50% disease control) | 1 (about 50-80% disease control) | 2 (greater than 80% disease control) | 1 (about 50-80% disease control) | 0 (less than 50% disease control) | 1 (about 50-80% disease control)
